According to ChEMBL document CHEMBL1143039, “Further modification on phenyl acetic acid based quinolines as liver X receptor modulators” (Bioorg Med Chem, 2007):

Columns and labels:
Mus musculus [1] = assay: Reduction of aortic arch lesion in C57BL/6 ApoE knockout mouse at 10 mg/kg, po for 12 weeks; type: functional, Pharyngeal arch artery; parameters: scale not given: the % may be the effect or the level left
Mus musculus [2] = assay: Increase in plasma triglyceride level in C57BL/6 ApoE knockout mouse at 10 mg/kg, po for 12 weeks; type: functional
[3] = Cmax in C57BL/6 mouse at 10 mg/kg, po; type: ADME, organism-based; parameters: dose 10 mg/kg, route oral; settings: in vivo
[4] = molecular target: T1, Peroxisome proliferator-activated receptor alpha (Homo sapiens, UniProt Q07869); assay: Agonist activity at human recombinant PPARalpha by GAL4 transactivation assay; type: functional
T1 sequence (Q07869 whole entry): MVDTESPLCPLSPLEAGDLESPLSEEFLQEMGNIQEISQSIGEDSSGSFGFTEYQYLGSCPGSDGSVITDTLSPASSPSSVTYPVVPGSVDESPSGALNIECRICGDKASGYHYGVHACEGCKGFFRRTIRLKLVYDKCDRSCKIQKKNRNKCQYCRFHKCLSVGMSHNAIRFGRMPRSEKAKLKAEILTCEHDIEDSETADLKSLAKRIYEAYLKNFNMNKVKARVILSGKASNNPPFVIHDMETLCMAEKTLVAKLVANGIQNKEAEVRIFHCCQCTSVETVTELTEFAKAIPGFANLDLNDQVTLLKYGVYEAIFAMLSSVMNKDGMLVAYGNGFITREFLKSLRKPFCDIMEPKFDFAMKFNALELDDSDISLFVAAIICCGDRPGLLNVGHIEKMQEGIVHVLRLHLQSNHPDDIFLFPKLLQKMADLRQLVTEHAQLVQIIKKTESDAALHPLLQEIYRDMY

[5] = molecular target: T2, Peroxisome proliferator-activated receptor gamma (Homo sapiens, UniProt P37231); assay: Agonist activity at human recombinant PPARgamma by GAL4 transactivation assay; type: functional
T2 sequence (P37231 whole entry): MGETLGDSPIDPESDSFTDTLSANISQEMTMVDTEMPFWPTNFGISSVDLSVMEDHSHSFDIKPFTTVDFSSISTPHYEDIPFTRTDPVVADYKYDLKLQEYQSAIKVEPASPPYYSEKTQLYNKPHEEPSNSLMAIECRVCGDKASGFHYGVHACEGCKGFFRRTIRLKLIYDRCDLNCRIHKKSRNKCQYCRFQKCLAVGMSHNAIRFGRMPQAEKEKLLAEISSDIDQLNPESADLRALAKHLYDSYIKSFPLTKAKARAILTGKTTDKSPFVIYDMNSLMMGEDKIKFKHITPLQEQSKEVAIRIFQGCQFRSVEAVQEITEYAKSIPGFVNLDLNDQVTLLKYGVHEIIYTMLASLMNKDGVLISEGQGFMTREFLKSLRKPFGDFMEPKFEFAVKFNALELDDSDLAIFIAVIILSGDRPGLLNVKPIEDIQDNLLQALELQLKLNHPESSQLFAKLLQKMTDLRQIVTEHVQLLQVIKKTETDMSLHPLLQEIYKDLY

THP-1 [6] = assay: Increase in ABCA1 gene expression in THP1 cells relative to TO901317; type: functional, Homo sapiens
[7] = AUC (infinity) in C57BL/6 mouse at 10 mg/kg, po; type: ADME, organism-based; parameters: time infinity, dose 10 mg/kg, route oral; settings: plasma
[8] = molecular target: T3, Oxysterols receptor LXR-beta (Homo sapiens, UniProt P55055)
T3 sequence (P55055 whole entry): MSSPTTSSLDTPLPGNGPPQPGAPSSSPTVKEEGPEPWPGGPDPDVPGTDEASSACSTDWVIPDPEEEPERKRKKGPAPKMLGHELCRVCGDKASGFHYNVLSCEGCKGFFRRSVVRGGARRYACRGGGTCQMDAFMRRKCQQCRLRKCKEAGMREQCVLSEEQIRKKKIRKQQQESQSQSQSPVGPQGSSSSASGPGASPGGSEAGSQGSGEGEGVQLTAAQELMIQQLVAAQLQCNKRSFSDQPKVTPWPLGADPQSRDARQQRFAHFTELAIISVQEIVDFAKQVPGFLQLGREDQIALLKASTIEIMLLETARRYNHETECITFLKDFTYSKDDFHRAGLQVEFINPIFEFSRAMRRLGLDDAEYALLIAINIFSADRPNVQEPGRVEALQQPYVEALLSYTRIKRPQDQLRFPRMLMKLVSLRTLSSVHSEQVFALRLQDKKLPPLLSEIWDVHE
Description: Agonist activity at human recombinant LXRbeta expressed in CHO cells

[9] = Half life in C57BL/6 mouse at 1 mg/kg, iv; type: ADME, organism-based; parameters: dose 1 mg/kg, route intravenous; settings: in vivo
[10] = molecular target: T4, Oxysterols receptor LXR-beta (Homo sapiens) (UniProt P55055); assay: Agonist activity at human recombinant LXRbeta expressed in Huh7 cells by GAL4 transactivation assay relative to TO901317; type: functional, cell-based; settings: Huh-7
T4 sequence (whole entry): T3 sequence (P55055 whole entry)

[11] = Clearance in C57BL/6 mouse at 1 mg/kg, iv; type: ADME, organism-based; parameters: dose 1 mg/kg, route intravenous; settings: in vivo
[12] = molecular target: T5, Peroxisome proliferator-activated receptor gamma (Homo sapiens) (UniProt P37231); assay: Agonist activity at human recombinant PPARgamma by GAL4 transactivation assay relative to rosiglitazone; type: functional
T5 sequence (whole entry): T2 sequence (P37231 whole entry)

[13] = molecular target: T6, Oxysterols receptor LXR-alpha (Homo sapiens, UniProt Q13133); assay: biochemical
T6 sequence (Q13133 whole entry): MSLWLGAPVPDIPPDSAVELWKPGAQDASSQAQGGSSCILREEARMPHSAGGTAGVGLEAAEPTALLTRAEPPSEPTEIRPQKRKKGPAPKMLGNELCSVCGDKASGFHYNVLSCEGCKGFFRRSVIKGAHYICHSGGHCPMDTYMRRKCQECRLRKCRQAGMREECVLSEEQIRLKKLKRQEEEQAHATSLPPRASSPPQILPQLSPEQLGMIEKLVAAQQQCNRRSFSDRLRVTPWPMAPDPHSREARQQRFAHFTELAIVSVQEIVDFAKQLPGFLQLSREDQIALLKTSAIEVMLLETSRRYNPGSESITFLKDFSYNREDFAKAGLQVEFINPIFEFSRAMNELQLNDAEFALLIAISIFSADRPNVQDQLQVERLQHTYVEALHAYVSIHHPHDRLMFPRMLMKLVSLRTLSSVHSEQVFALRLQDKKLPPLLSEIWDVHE
Description: Displacement of [3H]T-0901317 from human recombinant LXRalpha expressed in CHO cells

[14] = Tmax in C57BL/6 mouse at 10 mg/kg, po; type: ADME, organism-based; parameters: dose 10 mg/kg, route oral; settings: in vivo
Mus musculus [15] = assay: Reduction in aortic arch lesion area in C57BL/6 ApoE knockout mouse at 10 mg/kg, po for 12 weeks; type: functional, Pharyngeal arch artery
[16] = molecular target: T7, Peroxisome proliferator-activated receptor delta (Homo sapiens, UniProt Q03181); assay: Agonist activity at human recombinant PPARdelta by GAL4 transactivation assay; type: functional
T7 sequence (Q03181 whole entry): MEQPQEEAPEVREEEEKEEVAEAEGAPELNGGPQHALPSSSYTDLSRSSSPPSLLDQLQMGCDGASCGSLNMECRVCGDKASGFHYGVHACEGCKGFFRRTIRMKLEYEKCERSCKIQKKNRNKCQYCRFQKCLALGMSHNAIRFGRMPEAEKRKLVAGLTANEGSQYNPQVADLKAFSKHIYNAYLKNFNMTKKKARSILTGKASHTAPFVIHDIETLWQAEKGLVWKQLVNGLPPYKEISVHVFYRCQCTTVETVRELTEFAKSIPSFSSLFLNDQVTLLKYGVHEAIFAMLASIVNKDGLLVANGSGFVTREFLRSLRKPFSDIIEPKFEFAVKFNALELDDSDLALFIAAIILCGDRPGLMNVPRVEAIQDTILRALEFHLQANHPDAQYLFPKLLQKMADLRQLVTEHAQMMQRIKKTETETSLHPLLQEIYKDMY

Huh-7 [17] = assay: Increase in SREBP1c gene expression in Huh7 cells relative to TO901317; type: functional, Homo sapiens
Huh-7 [18] = assay: Increase in SREBP1c gene expression in Huh7 cells; type: functional, cell-based; settings: Homo sapiens
[19] = molecular target: T6, Oxysterols receptor LXR-alpha; assay: Agonist activity at human recombinant LXRalpha expressed in Huh7 cells by GAL4 transactivation assay; type: functional, cell-based, Huh-7
Liver microsomes = assay: Stability in human liver microsomes; type: ADME, Microsome
[20] = Volume of distribution in C57BL/6 mouse at 1 mg/kg, iv; type: ADME, organism-based; parameters: dose 1 mg/kg, route intravenous; settings: in vivo, read-out: Vss
[21] = molecular target: T3, Oxysterols receptor LXR-beta; assay: Agonist activity at human recombinant LXRbeta expressed in Huh7 cells by GAL4 transactivation assay; type: functional, cell-based, Huh-7
THP-1 [22] = assay: Increase in ABCA1 gene expression in THP1 cells; type: functional, cell-based; settings: Homo sapiens
[23] = Bioavailability in C57BL/6 mouse at 10 mg/kg, po; type: ADME, organism-based; settings: in vivo
[24] = molecular target: T3, Oxysterols receptor LXR-beta; assay: biochemical
Description: Displacement of [3H]T0901317 from human recombinant LXRbeta expressed in CHO cells

[25] = molecular target: T8, Peroxisome proliferator-activated receptor alpha (Homo sapiens) (UniProt Q07869); assay: Agonist activity at human recombinant PPARalpha by GAL4 transactivation assay relative to WY-14643; type: functional
T8 sequence (whole entry): T1 sequence (Q07869 whole entry)

[26] = molecular target: T9, Oxysterols receptor LXR-alpha (Homo sapiens) (UniProt Q13133); assay: Agonist activity at human recombinant LXRalpha expressed in Huh7 cells by GAL4 transactivation assay relative to TO901317; type: functional, cell-based; settings: Huh-7
T9 sequence (whole entry): T6 sequence (Q13133 whole entry)

[27] = Stability in mouse liver microsomes; type: ADME, Microsome
[28] = Half life in C57BL/6 mouse at 10 mg/kg, po; type: ADME, organism-based; parameters: dose 10 mg/kg, route oral; settings: in vivo

| Compound | Activity (Mus musculus [1]) [%] | Activity (Mus musculus [2]) [mg/dL] | Cmax [3] [µg/mL] | EC50 [4] [µM] | EC50 [5] [µM] | Activity (THP-1 [6]) [%] | AUC(0-inf) [7] [µg·h/mL] | EC50 [8] [µM] | half-life [9] [h] | Activity [10] [%] | clearance [11] [L/h/kg] | Activity [12] [%] | IC50 [13] [µM] | Tmax [14] [h] | aortic arch lesion area (Mus musculus [15]) [%] | EC50 [16] [µM] | Activity (Huh-7 [17]) [%] | EC50 (Huh-7 [18]) [µM] | EC50 [19] [µM] | IC50 [24] [µM] | further results |
| --- | --- | --- | --- | --- | --- | --- | --- | --- | --- | --- | --- | --- | --- | --- | --- | --- | --- | --- | --- | --- | --- |
| Cc1cccc2c(-c3cccc(NCc4ccc(CC(=O)O)cc4)c3)c(Cc3ccccc3)cnc12 | 57 | 15.2 | 4.19 | 1.77 | 1.03 | 139 | 3.58 | 0.09 | 1.6 | 75 | 1.5 | 46.6 | 0.021 | 0.25 | 4.09 | 1.97 | 114 | 0.0514 | 0.467 | 0.005 | Stability (Liver microsomes): Stable; Vd [20]: 1.2 L/kg; EC50 [21]: 0.267 µM; EC50 (THP-1 [22]): 0.438 µM; bioavailability [23]: 53%; Activity [25]: 7.5%; Activity [26]: 101%; Stability [27]: Stable; half-life [28]: 1.2 h |
| O=C(O)Cc1ccc(CNc2cccc(-c3c(Cc4ccccc4)cnc4c(Cl)cccc34)c2)cc1 | 53 | 64.56 | 2.5 | 2.05 | 0.506 | 162 | 2.58 | 0.023 | 1.8 | 67 | 2.22 | 50.6 | 0.005 | 0.25 | 4.47 | 0.631 | 137 | 0.075 | 0.121 | 0.0014 | Stability (Liver microsomes): Stable; Vd [20]: 1.8 L/kg; EC50 [21]: 0.054 µM; EC50 (THP-1 [22]): 0.081 µM; bioavailability [23]: 57%; Activity [25]: 12%; Activity [26]: 89%; Stability [27]: Stable; half-life [28]: 1.2 h |
| NC(=O)c1cnc2c(C(F)(F)F)cccc2c1-c1cccc(NCc2ccc(CC(=O)O)cc2)c1 |  |  |  |  |  |  |  |  |  |  |  |  | > 10 |  |  |  |  |  |  | > 10 |  |
| O=C(O)Cc1cccc(OCCCN(Cc2cccc(C(F)(F)F)c2Cl)CC(c2ccccc2)c2ccccc2)c1 | 79 | 2.95 |  |  |  |  |  |  |  |  |  |  |  |  | 1.99 |  |  |  |  |  |  |
| O=C(O)/C=C/c1ccc(CNc2cccc(-c3c(C(=O)c4ccccc4)cnc4c(C(F)(F)F)cccc34)c2)cc1 |  |  |  |  |  |  |  |  |  |  |  |  | > 10 |  |  |  |  |  |  | > 10 |  |
